Test results: US10639299B2, “Calcium sensing receptors, ligands, compositions, and methods of use” (Georgia State University Research Foundation, Inc., priority 2016, dated 2020)

Molecular target: T1, CaSR (Homo sapiens, UniProt P41180)
T1 sequence (P41180 20-1078): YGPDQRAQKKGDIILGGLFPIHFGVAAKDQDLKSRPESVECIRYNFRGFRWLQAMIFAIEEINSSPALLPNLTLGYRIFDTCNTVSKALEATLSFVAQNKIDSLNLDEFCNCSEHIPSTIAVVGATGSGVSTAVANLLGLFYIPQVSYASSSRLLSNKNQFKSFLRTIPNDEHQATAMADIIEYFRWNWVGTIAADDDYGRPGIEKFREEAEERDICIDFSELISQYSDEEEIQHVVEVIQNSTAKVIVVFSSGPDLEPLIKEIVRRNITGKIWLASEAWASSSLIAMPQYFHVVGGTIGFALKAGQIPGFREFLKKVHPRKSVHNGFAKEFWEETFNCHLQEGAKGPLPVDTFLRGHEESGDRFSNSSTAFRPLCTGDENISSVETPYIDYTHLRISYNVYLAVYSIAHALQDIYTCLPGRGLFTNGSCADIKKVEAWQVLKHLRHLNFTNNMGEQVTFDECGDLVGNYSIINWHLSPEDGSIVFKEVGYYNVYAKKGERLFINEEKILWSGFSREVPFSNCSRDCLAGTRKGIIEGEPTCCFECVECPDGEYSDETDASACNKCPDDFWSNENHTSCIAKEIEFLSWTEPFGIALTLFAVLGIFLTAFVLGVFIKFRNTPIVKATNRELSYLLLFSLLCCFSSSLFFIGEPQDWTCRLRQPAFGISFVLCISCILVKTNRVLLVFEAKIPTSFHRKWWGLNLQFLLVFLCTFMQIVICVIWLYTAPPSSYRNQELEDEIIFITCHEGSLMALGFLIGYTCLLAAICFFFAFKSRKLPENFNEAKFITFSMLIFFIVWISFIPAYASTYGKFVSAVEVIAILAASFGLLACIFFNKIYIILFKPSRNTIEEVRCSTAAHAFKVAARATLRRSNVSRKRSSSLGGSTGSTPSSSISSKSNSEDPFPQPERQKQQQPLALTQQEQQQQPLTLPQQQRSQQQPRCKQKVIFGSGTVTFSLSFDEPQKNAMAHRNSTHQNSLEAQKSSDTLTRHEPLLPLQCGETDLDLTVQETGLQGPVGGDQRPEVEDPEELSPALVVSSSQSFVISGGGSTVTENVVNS
Test: [Ca^2+]i signaling (Fura-2) evoked by [Mg^2+]o/[Ca^2+]o in CaSR-expressing HEK293 cells (5001 cell population assay)
Format: cell-based
Parameters: expressed in transfected cells
Description: Measurement of intracellular free Ca^2+ was assessed as described by Huang, et al^33. Briefly, wild type CaSR, or its mutants, were transiently transfected into HEK293 cells grown on coverslips and cultured for 48 h. The cells were subsequently loaded for 15 min using 2 μM Fura-2 AM in 2 mL physiological saline buffer (10 mM HEPES, 140 mM NaCl, 5 mM KCl, 1.0 mM MgCl2 and pH 7.4). The coverslips were mounted in a bath chamber on the stage of a Leica DM6000 fluorescence microscope. The cells were alternately illuminated with 340 or 380 nm light, and the fluorescence at an emission wavelength 510 nm was recorded in real time as the [Ca^2+]o and/or [Mg^2+]o was increased in a stepwise manner in the presence or absence of 0.25 mM TNCA in buffer (10 mM HEPES, 155 mM NaCl, 5 mM KCl, 2 mM NaH2PO4, 0.5 mM MgCl2 and pH 7.4). The ratio of the emitted fluorescence intensities resulting from excitation at both wavelengths was utilized as a surrogate for changes in [Ca^2+]i and was further plotted and analyzed as a function of [Ca^2+]o. All experiments were performed at room temperature. The signals from 20 to 100 single cells were recorded for each measurement. Oscillations were identified as three successive fluctuations in [Ca^2+]i after the initial peak. Determination of the Effect of TNCA on Mg^2+-Evoked [Ca^2+]i Signaling by Stimulation of CaSR in Cell Populations.
Changes in the intracellular Ca^2+ concentration [Ca^2+ ]i elicited by extracellular Mg^2+ ([Mg^2+]o) in a population of cells were measured by fluorimetry as described previously^33. A cell line stably expressing CaSR (designated the “5001 cell line”) was seeded on 13.5×20-mm coverslips and cultured in DMEM. After reaching 95% confluence, cells were washed three times using loading buffer (20 mM HEPES [pH 7.4], 125 mM NaCl, 5 mM KCl, 1.25 mM CaCl2, 1 mM MgCl2, 1 mM NaH2PO4, 1% glucose, and 1% BSA) and subsequently incubated with 4 μM Fura-2 and 4 μM pluronic F127 for 20 minutes at 37° C. to enable sufficient dye loading in the same buffer. After removing the excess Fura-2, coverslips with cells were diagonally positioned in a quartz cuvette filled with 3 ml of experimental buffer (125 mM NaCl, 5 mM KCl, 0.5 mM CaCl2, 0.5 mM MgCl2, 1% glucose, and 1% BSA). Measurements of Fura-2 fluorescence at 510 nm when excited at 340 or 380 nm were performed on a QM1 fluorescence spectrophotometer (PTI). The emission ratio of 340/380 was calculated and used to reflect the changes in [Ca^2+]i when different concentrations of [Mg^2+]o were applied to the cells.
To examine the co-activation of CaSR by TNCA and [Mg^2+]o or [Ca^2+]o, different concentrations of TNCA were placed in the experimental buffer with a fixed concentration of [Ca^2+]o and varying concentrations of [Mg^2+]o, or vice versa, as described in the results section. The effects of other ligands were analyzed by comparing the changes in [Ca^2+ ]i produced by [Mg^2+]o alone or by co-application of Mg^2+ with other ligands. The EC50 of [Mg^2+]o obtained during incubation with various concentrations of TNCA is compared with that observed in the presence of [Mg^2+]o alone. The EC50 changes were plotted as a function of TNCA concentration and the curve was fit to the Hill equation. The activation of CaSR by the TNCA, functioning as a co-agonist with [Mg^2+]o, is indicated by the increasingly leftward-shifted EC50 for [Mg^2+]o as the concentration of TNCA increases (FIG. 6).

effect on [Mg^2+]o activation of CaSR: further potentiated
Compound: N[C@@H](Cc1ccccc1)C(=O)O [Phe, phenylalanine]
